Measurements: patent publication US8758781B2, “Tissue scaffolds derived from forestomach extracellular matrix” (Mesynthes Ltd., priority 2008, dated 2014)

Columns and labels:
PC12 cells = assay: PC12 cell differentiation by growth factor released from laminates; assay type: cell-based; details: growth factor solution control (50 ng/disc); 48 hours
Experimental: Specifically, a collagen gel was prepared as described in Example 3. Once formed the gel was spiked with either human recombinant FGF2 or NGF. Sterile FM scaffold sheets were cut to 8 mm discs, and growth factor spiked collagen gel (10 μL) was applied to one surface. A second FM scaffold disc was applied to the collagen layer to create a laminate sandwich (i.e., FM scaffold/bioactive collagen polymer/FM scaffold). The bioactive FM scaffold laminates were dehydrated at 25° C. for 2 hours to yield a bonded laminate. The FM laminates were produced with FGF2 or NGF at either 0, 250 or 500 ng/disc. The bioactive FM scaffolds were incubated at 37° C. for 24 hours in DMEM (1 mL) to extract the bound growth factor prior to application to a cell monolayer. PC12 cells were seeded onto 24-well plates at 20 k cells/well in DMEM (1 mL) and incubated for 24 hours at 37° C. Media was removed from the cells and replaced with DMEM (1 mL) that had been incubated with the bioactive FM scaffold laminates. Positive control cells were treated with a solution of either FGF2 or NGF at 50 ng/mL final concentration. Cells were incubated for 48 hours. […] Total cells were counted per frame, as well as the total number of cell processes per frame. […] Growth factor stimulated cell differentiation was expressed as the number of cell processes per cell per frame. Results are expressed as Table 19. […]

[1] = system: PI-3: Parainfluenza virus type 3 (Paramyxoviridae); details: 0.3% PAA/5% Ethanol in PBS
Experimental: (§1) A study was undertaken to examine viral inactivation during the STOF processes and PAA treatment using three model viruses.
(§2) The level of viral inactivation was tested using a scaled-down manufacturing process. This involved spiking high-titre viral stocks of each of the three model viruses into samples representing two different stages of the manufacturing process, and subjecting these spiked samples to a treatment analogous to the corresponding manufacturing step. The level of virus inactivation during each treatment was determined by comparing the viral titres recovered from the spiked samples after each treatment, with viral recovery from untreated samples.
(§3) The model viruses were chosen to include viruses with different physio-chemical characteristics, such as the presence or absence of envelope, type of nucleic acid genome (DNA or RNA) and survival in the environment/resistance to disinfection (Table 22). The amount of infectious virus present in samples was determined by end-point titration and viral titres were expressed as tissue culture infective dose, 50% (TCID50).

[2] = system: BEV: Bovine enterovirus (Picornaviridae); assay: Viral inactivation in scaled-down manufacturing process; details: 0.3% PAA/5% Ethanol in PBS
Experimental: as §1, §2, §3

[3] = system: FHV-1: Felid herpesvirus type 1 (Herpesviridae); assay: as above; details: 0.3% PAA/5% Ethanol in PBS
Experimental: as §1, §2, §3

S. aureus = assay: Anti-microbial zone of inhibition on Mueller-Hinton agar; assay type: cell-based; parameters: key: ‘+++’ indicates a bioactivity comparable to the positive control; ‘−’ indicates no bioactivity; details: positive control, solution on sterile filter paper disc
Experimental: Plates of Mueller-Hinton agar were prepared and streaked with 100 μL of 10^8 S. aureus and left to dry for 5-10 minutes. Using sterile technique, discs were transferred to the plates and the plates incubated for 24 hours at 35° C. After 24 hours, plates were digitally imaged and the anti-microbial zone of inhibition around each of the discs was scored relative to the positive control.

Compound: rhNGF: NGF solution, positive control
- Relative cell response (cell processes per cell per frame) (PC12 cells): 0.73 ± 0.01

Compound: rhFGF2: human recombinant FGF2 solution, positive control
- Relative cell response (cell processes per cell per frame) (PC12 cells): 0.72 ± 0.02

Compound: CC(=O)OO [PAA, peracetic acid]
- PAA Inactivation [1]: ≧2.3 log TCID50
- PAA Inactivation [2]: 7.3 log TCID50
- PAA Inactivation [3]: ≧2.6 log TCID50

Compound: poly-L-lysine
- Antibacterial score (S. aureus; 5 μg/disc): +++

Compound: C[C@H]1c2cccc(O)c2C(=O)C2=C(O)[C@]3(O)C(=O)C(C(N)=O)=C(O)[C@@H](N(C)C)[C@@H]3[C@@H](O)[C@@H]21 [Doxycycline]
- Antibacterial score (S. aureus; 30 μg/disc): +++
